From ChEMBL document CHEMBL1134878, “L-Cysteine based N-type calcium channel blockers: structure-activity relationships of the C-terminal lipophilic moiety, and oral analgesic efficacy in rat pain models” (Bioorg Med Chem Lett, 2002) come the findings set out here.

Structures are written as SMILES. Where only a bound is given, the exact number is not on record here.

The target in data set [1] is T1, Voltage-dependent N-type calcium channel subunit alpha-1B (Homo sapiens, UniProt Q00975). Kind of data set: In vitro inhibition of N-type calcium channel influx in IMR-32 human neuroblastoma cells. The format is cell-based.
Target sequence in this assay (Q00975 whole entry): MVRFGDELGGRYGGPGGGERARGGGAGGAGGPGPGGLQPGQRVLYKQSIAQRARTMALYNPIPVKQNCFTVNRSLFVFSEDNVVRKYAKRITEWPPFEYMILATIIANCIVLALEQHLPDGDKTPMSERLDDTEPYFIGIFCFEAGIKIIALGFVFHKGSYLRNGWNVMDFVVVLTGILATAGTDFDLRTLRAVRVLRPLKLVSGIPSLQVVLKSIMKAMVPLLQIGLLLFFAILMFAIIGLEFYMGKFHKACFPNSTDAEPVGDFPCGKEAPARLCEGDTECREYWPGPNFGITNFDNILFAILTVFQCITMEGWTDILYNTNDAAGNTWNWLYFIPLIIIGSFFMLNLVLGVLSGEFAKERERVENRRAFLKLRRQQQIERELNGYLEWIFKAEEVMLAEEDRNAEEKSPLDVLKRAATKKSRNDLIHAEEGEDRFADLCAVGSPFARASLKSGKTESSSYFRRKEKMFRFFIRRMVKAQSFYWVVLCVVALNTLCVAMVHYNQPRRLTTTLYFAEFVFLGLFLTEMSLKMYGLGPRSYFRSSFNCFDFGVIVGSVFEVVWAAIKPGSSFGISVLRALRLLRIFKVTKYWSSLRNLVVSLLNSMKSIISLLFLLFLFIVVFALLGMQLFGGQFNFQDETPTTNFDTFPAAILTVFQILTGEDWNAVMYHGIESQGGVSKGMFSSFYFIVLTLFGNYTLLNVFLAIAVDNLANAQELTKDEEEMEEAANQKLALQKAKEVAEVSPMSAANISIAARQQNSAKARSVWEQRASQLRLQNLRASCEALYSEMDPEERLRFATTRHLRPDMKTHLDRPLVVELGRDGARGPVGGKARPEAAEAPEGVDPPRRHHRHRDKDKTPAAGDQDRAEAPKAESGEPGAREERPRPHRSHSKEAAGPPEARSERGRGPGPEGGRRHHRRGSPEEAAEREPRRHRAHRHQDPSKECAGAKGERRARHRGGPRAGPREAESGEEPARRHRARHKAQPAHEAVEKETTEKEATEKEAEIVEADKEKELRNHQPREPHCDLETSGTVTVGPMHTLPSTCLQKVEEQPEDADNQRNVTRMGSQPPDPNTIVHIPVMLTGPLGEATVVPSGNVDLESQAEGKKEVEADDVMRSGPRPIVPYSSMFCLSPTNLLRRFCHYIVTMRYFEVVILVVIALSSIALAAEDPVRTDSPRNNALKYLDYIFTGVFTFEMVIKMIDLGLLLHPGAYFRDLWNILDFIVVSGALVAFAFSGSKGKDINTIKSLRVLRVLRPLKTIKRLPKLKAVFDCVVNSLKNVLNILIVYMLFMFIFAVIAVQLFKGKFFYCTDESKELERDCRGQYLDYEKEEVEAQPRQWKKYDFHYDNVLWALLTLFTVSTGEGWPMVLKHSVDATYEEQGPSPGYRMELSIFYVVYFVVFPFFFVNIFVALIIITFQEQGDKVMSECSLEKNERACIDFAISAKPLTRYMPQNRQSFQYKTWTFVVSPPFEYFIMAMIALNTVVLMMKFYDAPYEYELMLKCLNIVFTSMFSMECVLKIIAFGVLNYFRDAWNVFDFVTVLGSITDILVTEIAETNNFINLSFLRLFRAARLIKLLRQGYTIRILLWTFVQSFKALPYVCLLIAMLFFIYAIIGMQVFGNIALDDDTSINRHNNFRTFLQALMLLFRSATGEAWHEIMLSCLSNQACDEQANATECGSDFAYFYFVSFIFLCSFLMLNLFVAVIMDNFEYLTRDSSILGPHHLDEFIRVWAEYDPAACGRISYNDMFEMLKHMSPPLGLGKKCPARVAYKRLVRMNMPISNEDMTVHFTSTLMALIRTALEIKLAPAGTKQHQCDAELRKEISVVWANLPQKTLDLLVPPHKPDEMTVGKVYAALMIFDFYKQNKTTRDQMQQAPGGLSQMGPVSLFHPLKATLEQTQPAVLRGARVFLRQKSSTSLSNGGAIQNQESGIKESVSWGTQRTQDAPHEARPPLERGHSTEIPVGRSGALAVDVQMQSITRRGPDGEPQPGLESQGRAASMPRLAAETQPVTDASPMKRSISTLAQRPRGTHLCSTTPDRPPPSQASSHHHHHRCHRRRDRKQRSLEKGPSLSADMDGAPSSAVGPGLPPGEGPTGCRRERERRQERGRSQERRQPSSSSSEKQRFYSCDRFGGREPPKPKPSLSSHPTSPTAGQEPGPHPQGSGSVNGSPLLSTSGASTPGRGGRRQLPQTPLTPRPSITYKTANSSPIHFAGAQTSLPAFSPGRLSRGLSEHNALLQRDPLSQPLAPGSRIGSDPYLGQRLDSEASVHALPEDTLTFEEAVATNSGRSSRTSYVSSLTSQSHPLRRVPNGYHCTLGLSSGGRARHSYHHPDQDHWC
A short description of data set [2]: Selectivity IC50 ratio of L-type blocking activity (AtT-20 mouse pituitary tumor-derived cells) to that of N-type blocking activity (IMR-32 human neuroblastoma cells).
The nature of data set [3]: (§1) In vitro inhibition of calcium influx (L-type blocking activity) in AtT-20 mouse pituitary tumor-derived cells. To be noted: AtT20.
The nature of data set [4]: Partition coefficient (logP). As to conditions: octanol/water. Format: physicochemical.
Data set [5] has as its system Rattus norvegicus. Kind of data set: Minimum effective oral dose required for the inhibition of paw flinching in rat formalin induced pain model. Format: functional. As to conditions: read-out: MED.
A short description of data set [6]: as §1. The format is functional. As to conditions: AtT20.
Data set [7] can be described thus: Selectivity IC50 ratio of L-type [Ca2+] channel blocking activity (AtT-20 mouse pituitary tumor-derived cells) to that of N-type blocking activity (IMR-32 human neuroblastoma cells).
The target of data set [8] is T1, Voltage-dependent N-type calcium channel subunit alpha-1B. The data set can be described thus: Percentage inhibition of N-type calcium channel influx in IMR-32 human neuroblastoma cells at 3 uM. Format: cell-based.
Target sequence in this assay (Q00975 whole entry, looked up): as the sequence (Q00975 whole entry) above
The test system of data set [9] is Rattus norvegicus. Kind of data set: Minimum effective oral dose required for the antinociceptive effects on thermal hyperalgesia induced by CCI (chronic constriction injury) of the sciatic nerve in rat. The format is functional. To be noted: read-out: MED.

A word on the IC50: it is the concentration that inhibits the measured activity by half. For orientation: logP means a log measure of how a compound divides between an organic and an aqueous phase. Regarding `CC(C)(C)OC(=O)N1CSC[C@H]1C(=O)N[C@@H](CSCC1CCCCC1)C(=O)NCCNCc1ccccc1`, the IC50 in data set [1] was found to be 380 nM; in data set [3] it was 2400 nM. Also, the Ratio in data set [2] worked out at 6.3. Besides, the logP in data set [4] came out at 2.8.
With `CC(C)(C)OC(=O)N1CSC[C@H]1C(=O)N[C@@H](CSCC1CCCCC1)C(=O)NCc1ccc(Oc2ccccc2)cc1`, the Ratio in data set [2] stood at 12. The IC50 in [3] was 1700 nM. In [4], this compound displayed a logP of 5. Also, the minimal effective dose in the data set with Rattus norvegicus [5] was above 100 mg/kg.
For the compound `CC(C)(C)OC(=O)N1CSC[C@H]1C(=O)N[C@@H](CSCC1CCCCC1)C(=O)N1CCN(c2ccccc2)CC1`, the IC50 worked out at 390 nM in data set [1] and 580 nM in [3]. Also, the Ratio in data set [2] was determined as 1.5.
For `CC(C)(C)OC(=O)N1CSC[C@H]1C(=O)N[C@@H](CSCC1CCCCC1)C(=O)N1CCC(NCc2ccccc2)CC1`, the results for the IC50 in [1] and in [6] were 500 nM and 2600 nM, respectively. The Ratio in [7] is 5.2.
On to `CC(C)(C)OC(=O)N1CSC[C@H]1C(=O)N[C@@H](CSCC1CCCCC1)C(=O)NC1CCN(c2ccccc2)CC1`, for which the IC50 in data set [1] was found to be 150 nM; in data set [3], 540 nM. For the same compound, in [2], the Ratio worked out at 3.6.
For the compound `CC(C)(C)OC(=O)N1CSC[C@H]1C(=O)N[C@@H](CSCC1CCCCC1)C(=O)N1CCN(Cc2ccccc2)CC1`, the concentration for half-maximal inhibition (IC50) in [1] is 370 nM; in data set [3], 1000 nM. Moreover, in data set [2], the Ratio was 2.7.
On to `CC(C)(C)OC(=O)N1CSC[C@H]1C(=O)N[C@@H](CSCC1CCCCC1)C(=O)N1CCC(Nc2ccccc2)CC1`, for which the IC50 in data set [1] is 660 nM; in data set [6], 540 nM. In [7], the Ratio is 0.82.
A word on the inhibition: it is the drop in the measured response relative to a control, in per cent. `CC(C)(C)OC(=O)N1CSC[C@H]1C(=O)N[C@@H](CSCC1CCCCC1)C(=O)NC1CCN(Cc2ccccc2)CC1`: the inhibition in [8] amounted to 75%. Further, the IC50 in data set [1] came out at 330 nM; in data set [6] it was 5000 nM. The minimal effective dose was 30 mg/kg with Rattus norvegicus [9] and 10 mg/kg in the data set on Rattus norvegicus [5]. This compound registered a logP in [4] of 3.5. Also, the Ratio in data set [7] is 15.
